Five compounds from paper PMC7709957 (2020) can be followed below.

This assay deals with F. ulcerans ZTP riboswitch (pfl RNA, 75-nt aptamer domain, crystal construct) (RNA, riboswitch) UAUCAGUUAUAUGACUGACGGAACGUGGAAUUAACCACAUGAAGUAUAACGAUGACAAUGCCGACCGUCUGGGCG
In words: ITC. To be noted: 150 mM KCl, 10 mM MgCl2, 50 mM Hepes-KOH pH 7.4, 37 °C.

Broadly, the Kd is the constant that tells how readily two partners part at equilibrium. High values mean a looser complex, low ones a tighter complex. Turning to `NC(=O)c1ncn([C@@H]2O[C@H](CO)[C@@H](O)[C@H]2O)c1N`, the equilibrium dissociation constant (Kd) was 2.3 ± 0.6 µM.

Consider `NC(=O)c1ncn(-c2ccccn2)c1N`, for which the Kd is 5.6 ± 3.2 µM.

In the case of `NC(=O)c1nc[nH]c1N`, the dissociation constant Kd was 41 ± 4 µM.

`NC(=O)c1ncn([C@@H]2O[C@H](COP(=O)(O)O)[C@@H](O)[C@H]2O)c1N` registered a dissociation constant Kd of 0.32 ± 0.13 µM.

For `NC(=O)c1ncn(-c2cccnc2)c1N`, the dissociation constant (Kd) (3% DMSO) amounted to 0.60 ± 0.06 µM.
